Assay results reported in article PMC11500415, “Chemical inhibition of stomatal differentiation by perturbation of the master-regulatory bHLH heterodimer via an ACT-Like domain” (Nature Communications, 2024).
Values joined by “and” are separate entries in the source; they are usually repeats but may differ in a detail not shown here. Equal values may be shown once. Read-outs that look alike come from different tables or passages of the source.

Biological target: T1, MUTE_ACTLR133A_R134A (Arabidopsis thaliana, UniProt Q9M8K6, R133A/R134A)
T1 construct: MUTE-ACTL (114-202); made in house; host or cells: E. coli BL21
T1 sequence (Q9M8K6 114-202 R133A/R134A): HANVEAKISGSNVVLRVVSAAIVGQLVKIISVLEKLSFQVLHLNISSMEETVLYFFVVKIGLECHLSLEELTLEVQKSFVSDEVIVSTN
Test: BLI direct binding
Set-up: species or system A. thaliana
Settings: for koff: read-out: kdis(1/s), MUTE_R133A_R134A on Anti-GST sensor

[1] = MUTE_R133A_R134A on Anti-GST sensor, Stomid 3.12 µM, rep-1, rep-2
[2] = MUTE_R133A_R134A on Anti-GST sensor, Stomid 6.25 µM, rep-1, rep-2
[3] = MUTE_R133A_R134A on Anti-GST sensor, Stomid 12.5 µM, rep-1, rep-2
[4] = MUTE_R133A_R134A on Anti-GST sensor, Stomid 25 µM, rep-1, rep-2
[5] = MUTE_R133A_R134A on Anti-GST sensor, Stomid 50 µM, rep-1, rep-2
[6] = MUTE_R133A_R134A on Anti-GST sensor, Stomid 100 µM, rep-1, rep-2
[7] = MUTE_R133A_R134A on Anti-GST sensor, Stomid 200 µM, rep-1, rep-2

## O=C1C(c2ccccc2)=NC(NS(=O)(=O)c2ccccc2)(c2ccccc2)N1S(=O)(=O)c1ccccc1 (centres unmarked) [Stomidazolone]
BLI, MUTE_ACTL R133A_R134A
  Kd: 120 ± 5.5 µM
[1]
  Kd: 127 µM and 126 µM
  RMax: 0.03 and 0.048
  Req/Rmax(%): 93.1% and 100%
  Response: 0.027 and 0.0456
[2]
  Kd: 128 µM and 127 µM
  RMax: 0.06 and 0.08
  Req/Rmax(%): 100%
  Response: 0.058 and 0.079
  kobs: 0.00193 s⁻¹ and 0.00258 s⁻¹
  kon: 976 M⁻¹ s⁻¹
[3]
  Kd: 126 µM and 124 µM
  RMax: 0.092 and 0.085
  Req/Rmax(%): 93.1% and 100%
  Response: 0.092 and 0.081
  kdis: 0.124 s⁻¹
[4]
  Kd: 128 µM and 126 µM
  Req/Rmax(%): 78.8% and 93.9%
  kdis: 0.123 s⁻¹
  kobs: 0.00186 s⁻¹ and 0.00281 s⁻¹
  kon: 975 M⁻¹ s⁻¹
[5]
  Kd: 127 µM and 125 µM
  RMax: 0.195 and 0.225
  Response: 0.193 and 0.2221
  kdis: 0.122 s⁻¹
  kon: 976 M⁻¹ s⁻¹
[6]
  Kd: 130 µM and 127 µM
  RMax: 0.244 and 0.289
  Req/Rmax(%): 96.5% and 96.6%
  Response: 0.242 and 0.284
  kobs: 0.00717 s⁻¹ and 0.00706 s⁻¹
  kon: 980 M⁻¹ s⁻¹
[7]
  Kd: 127 µM and 130 µM
  RMax: 0.344 and 0.38
  Req/Rmax(%): 99.9% and 99.8%
  Response: 0.341 and 0.375
  kdis: 0.125 s⁻¹
  kobs: 0.0285 s⁻¹ and 0.0284 s⁻¹
  kon: 960 M⁻¹ s⁻¹
Stomid 3.12 µM, rep-1, rep-2
  koff: 0.122 s⁻¹
Stomid 6.25 µM, rep-1, rep-2
  koff: 0.124 s⁻¹
Stomid 12.5 µM, rep-1, rep-2
  koff: 0.125 s⁻¹
Stomid 25 µM, rep-1, rep-2
  koff: 0.125 s⁻¹
Stomid 50 µM, rep-1, rep-2
  koff: 0.123 s⁻¹
Stomid 100 µM, rep-1, rep-2
  koff: 0.125 s⁻¹
Stomid 200 µM, rep-1, rep-2
  koff: 0.126 s⁻¹
read-out: kon(1/Ms), MUTE_R133A_R134A on Anti-GST sensor, Stomid 3.12 µM, rep-1, rep-2
  kon: 966 M⁻¹ s⁻¹
read-out: kon(1/Ms), MUTE_R133A_R134A on Anti-GST sensor, Stomid 6.25 µM, rep-1, rep-2
  kon: 970 M⁻¹ s⁻¹
read-out: kon(1/Ms), MUTE_R133A_R134A on Anti-GST sensor, Stomid 12.5 µM, rep-1, rep-2
  kon: 990 M⁻¹ s⁻¹
read-out: kon(1/Ms), MUTE_R133A_R134A on Anti-GST sensor, Stomid 25 µM, rep-1, rep-2
  kon: 980 M⁻¹ s⁻¹
read-out: kon(1/Ms), MUTE_R133A_R134A on Anti-GST sensor, Stomid 50 µM, rep-1, rep-2
  kon: 970 M⁻¹ s⁻¹
read-out: kon(1/Ms), MUTE_R133A_R134A on Anti-GST sensor, Stomid 100 µM, rep-1, rep-2
  kon: 960 M⁻¹ s⁻¹
read-out: kon(1/Ms), MUTE_R133A_R134A on Anti-GST sensor, Stomid 200 µM, rep-1, rep-2
  kon: 990 M⁻¹ s⁻¹
